Common to all, as to test: FRET-based coupled-enzyme protein kinase inhibition assay
What all share (type): biochemical
Common to all, as to conditions: compound at 10 µM, 1% DMSO

Experiment [1] has as its target SYK (Homo sapiens, UniProt P43405). A digest of the protocol:
(§1)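 Inhibition was quantified ratiometrically, as coumarin over fluorescein emission following 400 nm excitation, on a doubly labeled peptide whose cleavage by development reagent requires it to remain unphosphorylated. Kinase reactions ran 60 min at room temperature with ATP at apparent Km.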

The target of experiment [2] is T1, PHKG2 (Homo sapiens, UniProt P15735).
T1 sequence (P15735 1-406): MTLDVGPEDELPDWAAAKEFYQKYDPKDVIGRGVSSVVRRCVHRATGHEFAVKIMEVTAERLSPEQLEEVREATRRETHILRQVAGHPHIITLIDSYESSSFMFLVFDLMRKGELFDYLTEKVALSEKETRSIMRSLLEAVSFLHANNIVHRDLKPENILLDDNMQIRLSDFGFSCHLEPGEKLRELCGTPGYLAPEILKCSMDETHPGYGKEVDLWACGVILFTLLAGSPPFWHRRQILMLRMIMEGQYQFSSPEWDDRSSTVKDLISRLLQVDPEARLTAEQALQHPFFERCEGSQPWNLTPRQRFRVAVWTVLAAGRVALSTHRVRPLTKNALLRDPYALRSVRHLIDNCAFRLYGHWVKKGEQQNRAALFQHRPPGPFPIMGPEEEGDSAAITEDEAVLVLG
A digest of the protocol: as §1

For experiment [3], the target named is AKT1 (PKB alpha) (Homo sapiens, UniProt P31749). The method, boiled down:
as §1

Experiment [4] has as its target T2, CHEK1 (CHK1) (Homo sapiens, UniProt O14757).
T2 sequence (O14757 1-476): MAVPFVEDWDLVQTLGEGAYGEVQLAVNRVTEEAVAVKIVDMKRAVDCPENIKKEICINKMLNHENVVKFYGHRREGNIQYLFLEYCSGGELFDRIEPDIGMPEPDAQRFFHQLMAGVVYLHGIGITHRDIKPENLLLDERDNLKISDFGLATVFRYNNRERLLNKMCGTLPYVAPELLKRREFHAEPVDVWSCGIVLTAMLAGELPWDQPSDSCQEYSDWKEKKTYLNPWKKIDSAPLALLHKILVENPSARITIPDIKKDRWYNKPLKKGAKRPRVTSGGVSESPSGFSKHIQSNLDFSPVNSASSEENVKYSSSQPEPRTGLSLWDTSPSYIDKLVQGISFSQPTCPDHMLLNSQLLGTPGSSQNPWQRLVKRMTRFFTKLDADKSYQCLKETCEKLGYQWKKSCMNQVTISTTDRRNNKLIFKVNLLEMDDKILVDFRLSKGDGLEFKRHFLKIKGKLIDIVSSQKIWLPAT
The method, boiled down: as §1

Experiment [5] concerns the target ABL1 (Homo sapiens, UniProt P00519). A digest of the protocol: as §1
Experiment [6] concerns the target MAP4K4 (HGK) (Homo sapiens, UniProt O95819). The method, boiled down:
as §1

For experiment [7], the target named is INSR (Homo sapiens, UniProt P06213). The method, boiled down: as §1
Sequence of INSR (P06213 28-1382, species assumed): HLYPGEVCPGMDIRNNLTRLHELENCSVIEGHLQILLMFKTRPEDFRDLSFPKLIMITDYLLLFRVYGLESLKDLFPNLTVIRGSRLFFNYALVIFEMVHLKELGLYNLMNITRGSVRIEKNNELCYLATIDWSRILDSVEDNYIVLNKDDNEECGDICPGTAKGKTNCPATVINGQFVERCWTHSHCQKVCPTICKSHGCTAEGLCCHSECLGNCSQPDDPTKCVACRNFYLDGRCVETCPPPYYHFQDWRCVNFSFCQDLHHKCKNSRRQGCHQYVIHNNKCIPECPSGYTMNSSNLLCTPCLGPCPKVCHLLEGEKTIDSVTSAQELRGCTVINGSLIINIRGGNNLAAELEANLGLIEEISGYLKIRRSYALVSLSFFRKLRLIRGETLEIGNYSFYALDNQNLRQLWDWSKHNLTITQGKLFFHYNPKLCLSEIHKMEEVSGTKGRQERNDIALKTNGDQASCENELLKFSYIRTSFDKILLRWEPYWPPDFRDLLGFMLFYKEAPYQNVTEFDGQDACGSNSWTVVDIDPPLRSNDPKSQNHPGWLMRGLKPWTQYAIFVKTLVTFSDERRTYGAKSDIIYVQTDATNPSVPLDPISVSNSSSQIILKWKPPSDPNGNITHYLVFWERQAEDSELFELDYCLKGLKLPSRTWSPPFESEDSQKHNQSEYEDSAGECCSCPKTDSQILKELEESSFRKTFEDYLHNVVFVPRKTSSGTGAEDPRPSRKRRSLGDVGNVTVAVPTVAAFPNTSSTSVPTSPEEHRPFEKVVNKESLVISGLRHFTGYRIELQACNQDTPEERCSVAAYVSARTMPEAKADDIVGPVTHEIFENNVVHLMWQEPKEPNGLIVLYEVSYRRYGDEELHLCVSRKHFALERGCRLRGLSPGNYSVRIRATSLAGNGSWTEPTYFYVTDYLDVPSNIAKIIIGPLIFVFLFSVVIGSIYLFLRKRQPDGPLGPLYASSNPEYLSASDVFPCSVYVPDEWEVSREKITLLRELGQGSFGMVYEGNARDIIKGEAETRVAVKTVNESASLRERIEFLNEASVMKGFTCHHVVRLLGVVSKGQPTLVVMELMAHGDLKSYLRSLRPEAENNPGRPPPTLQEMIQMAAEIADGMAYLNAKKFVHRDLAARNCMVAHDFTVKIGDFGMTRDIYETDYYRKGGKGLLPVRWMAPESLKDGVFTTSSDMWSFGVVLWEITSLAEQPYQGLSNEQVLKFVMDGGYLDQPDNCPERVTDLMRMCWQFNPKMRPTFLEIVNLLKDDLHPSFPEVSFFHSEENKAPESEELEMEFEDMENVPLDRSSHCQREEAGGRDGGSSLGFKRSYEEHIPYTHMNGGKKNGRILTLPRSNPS
The target in experiment [8] is ERBB2 (HER2) (Homo sapiens, UniProt P04626). A digest of the protocol:
as §1

The target of experiment [9] is T3, AURKA (Aurora A) (Homo sapiens, UniProt O14965).
T3 sequence (O14965 1-403): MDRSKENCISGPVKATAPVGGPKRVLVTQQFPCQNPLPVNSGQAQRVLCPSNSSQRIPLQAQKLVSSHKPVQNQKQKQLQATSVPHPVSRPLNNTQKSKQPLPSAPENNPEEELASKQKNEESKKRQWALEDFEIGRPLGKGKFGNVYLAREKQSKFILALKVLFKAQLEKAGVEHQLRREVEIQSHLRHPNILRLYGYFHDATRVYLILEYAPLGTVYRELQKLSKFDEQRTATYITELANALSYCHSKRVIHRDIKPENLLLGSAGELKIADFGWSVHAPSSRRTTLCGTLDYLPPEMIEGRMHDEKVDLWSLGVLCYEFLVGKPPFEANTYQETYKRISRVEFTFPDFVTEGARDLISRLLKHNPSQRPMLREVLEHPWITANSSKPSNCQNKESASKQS
The method, boiled down: as §1

SMILES strings stand for the structures.

Sequence of MAP4K4 (HGK) (O95819 whole entry, species assumed): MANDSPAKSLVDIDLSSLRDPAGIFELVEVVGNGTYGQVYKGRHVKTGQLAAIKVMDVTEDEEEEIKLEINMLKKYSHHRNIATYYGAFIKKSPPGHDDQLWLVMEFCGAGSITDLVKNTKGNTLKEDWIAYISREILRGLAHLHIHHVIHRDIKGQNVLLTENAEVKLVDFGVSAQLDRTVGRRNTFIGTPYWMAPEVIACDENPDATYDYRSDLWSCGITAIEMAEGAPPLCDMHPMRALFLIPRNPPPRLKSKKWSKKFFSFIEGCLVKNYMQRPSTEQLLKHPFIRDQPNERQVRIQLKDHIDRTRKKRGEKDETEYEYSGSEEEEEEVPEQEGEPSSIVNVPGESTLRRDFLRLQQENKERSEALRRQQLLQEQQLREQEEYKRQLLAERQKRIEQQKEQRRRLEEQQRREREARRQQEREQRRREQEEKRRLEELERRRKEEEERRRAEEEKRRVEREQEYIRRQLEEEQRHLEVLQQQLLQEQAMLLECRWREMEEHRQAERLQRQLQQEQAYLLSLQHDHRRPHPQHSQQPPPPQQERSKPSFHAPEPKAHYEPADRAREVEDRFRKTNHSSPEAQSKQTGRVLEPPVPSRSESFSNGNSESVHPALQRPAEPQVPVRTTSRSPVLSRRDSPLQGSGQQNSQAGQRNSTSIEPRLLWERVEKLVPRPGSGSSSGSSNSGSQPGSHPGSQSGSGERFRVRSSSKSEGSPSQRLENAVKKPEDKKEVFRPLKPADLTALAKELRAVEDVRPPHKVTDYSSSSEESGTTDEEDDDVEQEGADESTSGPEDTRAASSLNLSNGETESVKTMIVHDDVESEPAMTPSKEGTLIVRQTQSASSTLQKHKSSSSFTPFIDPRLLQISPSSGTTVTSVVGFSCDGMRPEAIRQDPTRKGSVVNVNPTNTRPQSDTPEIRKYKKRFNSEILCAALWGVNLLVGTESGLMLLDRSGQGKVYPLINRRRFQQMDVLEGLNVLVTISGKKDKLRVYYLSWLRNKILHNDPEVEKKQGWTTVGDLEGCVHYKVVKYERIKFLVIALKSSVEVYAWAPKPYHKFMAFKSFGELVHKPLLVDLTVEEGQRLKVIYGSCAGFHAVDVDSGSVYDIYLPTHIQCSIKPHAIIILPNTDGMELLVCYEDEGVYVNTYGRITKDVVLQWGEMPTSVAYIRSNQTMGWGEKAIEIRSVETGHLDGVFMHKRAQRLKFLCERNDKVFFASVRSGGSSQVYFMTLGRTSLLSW
Sequence of ABL1 (P00519 whole entry, species assumed): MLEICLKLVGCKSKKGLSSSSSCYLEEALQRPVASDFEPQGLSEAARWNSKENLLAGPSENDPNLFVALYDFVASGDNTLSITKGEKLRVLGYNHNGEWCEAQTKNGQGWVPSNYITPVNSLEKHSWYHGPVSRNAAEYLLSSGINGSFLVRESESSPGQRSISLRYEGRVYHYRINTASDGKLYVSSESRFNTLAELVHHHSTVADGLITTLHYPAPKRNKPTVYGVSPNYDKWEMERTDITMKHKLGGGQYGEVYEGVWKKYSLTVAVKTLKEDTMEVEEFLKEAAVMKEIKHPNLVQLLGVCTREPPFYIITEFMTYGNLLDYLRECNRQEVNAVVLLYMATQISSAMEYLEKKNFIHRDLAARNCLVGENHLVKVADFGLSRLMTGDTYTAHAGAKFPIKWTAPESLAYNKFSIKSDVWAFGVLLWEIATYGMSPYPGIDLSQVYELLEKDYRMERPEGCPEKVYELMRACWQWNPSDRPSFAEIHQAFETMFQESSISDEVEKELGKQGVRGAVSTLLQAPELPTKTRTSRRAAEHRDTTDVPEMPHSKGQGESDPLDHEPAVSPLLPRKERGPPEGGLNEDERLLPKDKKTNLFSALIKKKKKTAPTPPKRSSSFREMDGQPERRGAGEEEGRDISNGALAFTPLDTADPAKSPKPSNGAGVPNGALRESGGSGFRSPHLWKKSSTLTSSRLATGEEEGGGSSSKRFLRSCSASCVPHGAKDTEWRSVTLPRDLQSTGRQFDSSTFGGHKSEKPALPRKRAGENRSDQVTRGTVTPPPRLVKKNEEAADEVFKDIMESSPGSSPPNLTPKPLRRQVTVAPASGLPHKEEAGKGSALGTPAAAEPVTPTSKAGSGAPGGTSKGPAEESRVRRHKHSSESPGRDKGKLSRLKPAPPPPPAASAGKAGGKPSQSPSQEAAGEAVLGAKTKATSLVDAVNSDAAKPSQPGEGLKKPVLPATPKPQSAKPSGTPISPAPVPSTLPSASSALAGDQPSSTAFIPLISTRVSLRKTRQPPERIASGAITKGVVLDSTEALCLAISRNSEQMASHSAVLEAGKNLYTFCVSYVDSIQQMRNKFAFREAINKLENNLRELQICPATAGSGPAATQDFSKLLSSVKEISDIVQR
Sequence of ERBB2 (HER2) (P04626 23-1255, species assumed): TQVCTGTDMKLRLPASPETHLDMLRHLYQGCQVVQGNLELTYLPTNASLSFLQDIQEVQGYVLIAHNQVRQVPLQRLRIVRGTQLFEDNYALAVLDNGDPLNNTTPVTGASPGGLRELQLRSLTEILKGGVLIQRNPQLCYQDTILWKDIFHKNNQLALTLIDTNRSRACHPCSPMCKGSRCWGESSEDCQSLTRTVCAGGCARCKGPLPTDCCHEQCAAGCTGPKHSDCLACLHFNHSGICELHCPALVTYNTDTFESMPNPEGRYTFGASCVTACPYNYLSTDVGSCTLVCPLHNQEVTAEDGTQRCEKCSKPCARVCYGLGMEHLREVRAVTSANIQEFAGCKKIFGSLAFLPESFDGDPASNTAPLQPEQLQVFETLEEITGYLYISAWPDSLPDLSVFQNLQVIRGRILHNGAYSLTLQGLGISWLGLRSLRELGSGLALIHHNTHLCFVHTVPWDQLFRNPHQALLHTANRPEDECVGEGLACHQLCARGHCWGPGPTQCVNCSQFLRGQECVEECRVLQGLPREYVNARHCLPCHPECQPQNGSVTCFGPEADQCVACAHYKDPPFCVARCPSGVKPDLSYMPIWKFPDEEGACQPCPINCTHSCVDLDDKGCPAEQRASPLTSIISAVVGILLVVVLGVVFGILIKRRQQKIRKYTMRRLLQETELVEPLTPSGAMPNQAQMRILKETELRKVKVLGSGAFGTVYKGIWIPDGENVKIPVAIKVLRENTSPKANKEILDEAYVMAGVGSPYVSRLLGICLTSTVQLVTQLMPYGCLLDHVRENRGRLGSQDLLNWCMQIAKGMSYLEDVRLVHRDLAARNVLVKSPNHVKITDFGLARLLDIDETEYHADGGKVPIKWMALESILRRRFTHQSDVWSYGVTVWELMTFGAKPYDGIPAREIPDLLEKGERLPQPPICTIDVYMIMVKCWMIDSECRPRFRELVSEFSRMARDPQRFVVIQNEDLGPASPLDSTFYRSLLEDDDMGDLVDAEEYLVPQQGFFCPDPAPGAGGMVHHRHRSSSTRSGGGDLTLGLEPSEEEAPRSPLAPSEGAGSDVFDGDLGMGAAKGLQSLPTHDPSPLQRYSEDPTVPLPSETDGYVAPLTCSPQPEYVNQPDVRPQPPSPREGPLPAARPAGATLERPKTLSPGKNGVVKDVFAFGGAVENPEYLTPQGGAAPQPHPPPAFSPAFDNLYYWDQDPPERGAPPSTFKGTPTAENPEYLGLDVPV

In general, inhibition refers to the relative decrease from the control value, in per cent. On to `N#CCCN1CCN(C(=O)OC[C@H]2O[C@@H](n3cnc4c(N)ncnc43)[C@H](O)[C@@H]2O)CC1` [Compound C70], for which the inhibition at 10 µM in experiment [1] was -1%; in experiment [2], 1%; in experiment [3], 8%; in [4], -11%; in [5] it was -7%; in experiment [6] it was -5%. The inhibition at 10 µM in experiment [7] was -2%; in experiment [8], 0%; in experiment [9], -1%.
Consider `Nc1ncnc2c1ncn2[C@@H]1O[C@H](COC(=O)N2CCS(=O)(=O)CC2)[C@@H](O)[C@H]1O` [Compound C100], for which the inhibition at 10 µM in experiment [1] was -3%; in [2] it was 1%; in [3], 8%; in [4] it was -8%; in experiment [5] it was 1%; in experiment [6], -6%. For the same compound, the figures for the inhibition at 10 µM in [7], in experiment [8] and in experiment [9] were -2%, 2% and -7%, respectively.

The record behind these values is EP3212201B1, “NUCLEOSIDE KINASE INHIBITORS” (BCI Pharma, priority 2014, dated 2016).
